# Read-outs that look alike come from different tables or passages of the source.
# What was measured:
# [1] = system: RSV A2; test: RSV A2-GFP microneutralization of sera, naive Sprague Dawley rats; assay type: in vivo; details: Day 22, 22 days post Dose 1; RSV sF 10 and 100 μg groups
# Procedure: In a subsequent study, the immunogenicity and protection following a prime-boost regimen of RSV-SF was evaluated. 40 naive female Sprague Dawley rats were divided into designated vaccine cohorts of 5-6 animals per cohort. Briefly, test groups were given RSV sF (10 μg or 100 μg per animal) without adjuvant or RSV sF (10 μg or 100 μg per animal) with GLA-SE (2.5 μg in 2% SE). Negative control groups were dosed with placebo (PBS buffer) or adjuvant GLA-SE (2.5 μg/2%) without RSV sF. […] Groups 1-6 were inoculated IM with 500 μL of designated vaccine article on Day 0 and Day 22, while Group 7 was inoculated IN with 200 μL of RSV A2 virus on day 0 only. […] Rats were euthanized at 4 days post challenge on Day 46, the day of peak viral replication determined from Study 1. Lungs (excluding 1 lobe which was formalin-fixed) and noses were homogenized and quantified for viral titers.
# Serological responses to vaccination were evaluated at 6 hours post immunization, D22, and D42 for all animals and at Day 14 for a subset of 3 animals per group. […] Serum obtained 6 hours post-immunization was evaluated for cytokine titers by multiplexed ELISA. Serum from Days 14, 22, and 42 were measured for total anti-F IgG ELISA endpoint dilution titers. Day 42 serum was evaluated for the specific contribution of IgG1, IgG2a, and IgG2b anti-F responses by ELISA endpoint dilution titers. […]
# [2] = system: RSV sF protein
# [3] = system: RSV A2; test: Lung viral titers by plaque assay after RSV challenge, naive BALB/c mice; assay type: in vivo
# [4] = system: RSV-F derived MHC II (I-Ed)-binding peptides; test: F-specific CD4 T-cell cytokine profiling of restimulated splenocytes, naive BALB/c mice; assay type: in vivo; details: splenocytes 4 days post challenge, 72 h restimulation
# [5] = system: RSV A2; test: Serum RSV neutralizing titers, naive cotton rats; assay type: in vivo; details: day 42, naive cotton rats
# Procedure: RSV neutralizing antibody titers in heat-inactivated mouse sera at indicated timepoints were measured using a GFP-tagged RSV A2 micro-neutralization assay as previously described (Bernstein D I, et al. (2012) Phase 1 study of the safety and immunogenicity of a live, attenuated respiratory syncytial virus and parainfluenza virus type 3 vaccine in seronegative children. Pediatr Infect Dis J 31: 109-114). Briefly, confluent Vero cell monolayers were infected with 500 PFU of virus alone or virus pre-mixed with serially diluted serum samples, then incubated at 33° C. and 5% CO2 for 22 hrs. Plates were washed of free virus and GFP fluorescent viral foci were enumerated using the IsoCyte image scanner (Blueshift, Sunnyvale, Calif.).
# Cotton rats are a well established model for RSV studies and are often used in the preclinical evaluation of potential RSV vaccine candidates. To confirm the immune profile of GLA-SE adjuvanted RSV sF vaccine in a second RSV challenge model, individual cotton rats were administered the same RSV sF subunit vaccines at similar doses used for mice. RSV sF at 0.3 μg without adjuvant or adjuvanted with GLA, SE, GLA-SE, or alum was given intramuscularly at days 0 and 22.
# [6] = system: RSV-F MHC I and MHC II restricted peptides; test: IFNγ ELISPOT of splenocytes, naive BALB/c mice; assay type: in vivo; details: Day 32, 4 days post challenge, MHC I F peptide
# [7] = system: IFNγ, IL-5, IL-13, eotaxin, RANTES; test: Lung cytokines 4 days post challenge, highly seropositive BALB/c mice
# Procedure: One hundred three female BALB/c mice (Charles River), ages 6-8 weeks old, were divided into 13 groups. Group 1 had 7 mice and groups 2 through 13 had 8 mice. Following anaesthetization groups 1 through 12 were dosed with 1×10^6 plaque forming units (PFU) in 100 μL of live RSV via an intranasal (IN) route on Day 0 and Day 35. Group 13 was not exposed to RSV. On Day 56, groups 1 through 11 were immunized with placebo (PBS) or vaccine article via an intramuscular (IM) route following anesthesia with isoflurane. The vaccine articles were formulated in a total of 100 μL with 50 μL given in each hind limb. Group 12 was anesthetized with isoflurane and immunized with 1×10^6 PFU in 100 μL of live RSV via an IN route. […] Sera were obtained from retro orbital blood collection at study days 0, 28, 56 70 and 84, separated from whole blood and stored at −20° C. until evaluated. Spleens from 4 animals in each group were harvested for T cell assays on Day 67, 11 days post immunization, or at day 88, 4 days post challenge. Lung cytokines quantified at 4 days after challenge in individual lung homogenates by luminex assay (Milipore).
# Mouse cytokine/chemokine multiplex kits designed to include IFNgamma, IL-5, IL-13, IL-17 and eotaxin (Millipore, Billerica, Mass.) were used to evaluate lung homogenates. Lung homogenates were clarified by centrifugation prior to use. Assays were performed following manufacturer's instructions and plates were analyzed on a Luminex reader (Bio-Rad, Hercules, Calif.).
# [8] = system: F-derived CD8 peptide (KYKNAVTEL); test: CD8 IFNγ ELISPOT of splenocytes, 1x RSV seropositive BALB/c mice; assay type: in vivo
# Procedure: Systemic cellular immune responses to vaccination were evaluated in representative animals at Day 10 post vaccination. Additional representative animals were recalled with a viral challenge at Day 69 and evaluated for long-term cellular immune responses at Day 73, 4 days post viral challenge. For each of the groups, 3-5 individual splenocyte samples were prepared. CD4 T-cell readouts were assessed by multiplexed cytokine analysis of supernatant levels of a panel of secreted cytokines (including IFNγ, IL-5, IL-10, IL-13, and IL-17) following a 72-hour restimulation period with RSV sF. CD8 T-cell readouts were assessed by 2 methods: ELISPOT counts of IFNγ-secreting cells following a 36-48 hour restimulation period with an F-derived CD8 peptide ([…] aa 85-93) (SEQ ID NO: 12) and intracellular staining and quantification of the percentage of F-specific polyfunctional (IFNγ+ TNFα+IL-2+) CD8 T cells following a 5-hour restimulation period with the F-derived CD8 peptide.
substance,measurement,setting,value
"RSV sF: RSV soluble F protein, amino acids 1-524 of the RSV A2 F sequence lacking the transmembrane domain, given without adjuvant",serum neutralizing titers (log2 GMT IC50),[1],not significantly different from placebo
same,animals with ≧4-fold rise in IgG titers at Day 183 compared to Day 169,[2]; 4 animals per group,2 of 4
same,geomean anti-F IgG titer,"[2]; Day 42, 100 μg RSV sF at days 0 and 28",10.45±2.68 log 2
same,geomean anti-F IgG titer,"[2]; Day 183, 14 days post booster at Day 169",12.55±2.16 log 2
same,animals having detectable lung viral titers,[3]; 4 days post challenge,4/7
same,lung protection (full = 100-fold reduction vs PBS),[3]; 4 days post challenge,partial lung protection
same,detectable lung viral titers (individual animals),"[3]; naive BALB/c, IM days 0 and 14, 0.3 μg RSV sF, challenge day 28, 4 days post challenge",2.3-3.0 log10 pfu/gram
same,F-specific CD4 T-cell cytokine production profile,[4],Th2-type response characterized by IL-5 and IL-13 cytokines
same,RSV neutralizing titers (mean),[5],4.3 log2
same,F-specific CD8 IFNγ ELISPOT,[6],~30 spot forming units (SFU)/million cells
same,lung RANTES following RSVA2 exposure,[7]; 4 days post challenge,increased with increasing amounts of RSV sF
same,lung eotaxin and IL-13 upon RSV challenge,[7]; 4 days post challenge,did not induce eotaxin or IL-13 levels higher than any of the other groups
same,lung IL-5 in response to RSV challenge,"[7]; day 88, 4 days post challenge",did not set up mice to induce IL-5
same,F-specific CD8 IFNγ ELISPOT response,"[8]; Day 10 post vaccination, highest dose (10 μg) RSV sF",224 SFU/million
same,F-specific CD8 IFNγ ELISPOT response (mean),"[8]; Day 10 post vaccination, range across RSV sF doses 0.4-10 μg",72-224 SFU/million
same,recall F-specific CD8 IFNγ ELISPOT response (means),"[8]; Day 73, 4 days post RSV challenge, range across RSV sF doses",62-243 SFU/million

# Reference: patent US20160144021A1, “Vaccine Composition And Method Of Use” (MEDIMMUNE, LLC, priority 2013, published 2016)
